Reference: patent US20070243264A1, “Thickened Dilute Hypochlorite” (priority 2006, published 2007)
Read-outs that look alike come from different tables or passages of the source.

Columns and labels:
[1] = Gel formation of hypochlorite thickened with Laponite with added buffers; details: 200 ppm hypochlorite thickened with Laponite; for gel formation: acid added, amount not stated
[2] = Effect of thickeners on stability of dilute hypochlorite; assay type: physicochemical
Experimental: The amount of available halogen oxidant in the composition is determined by placing samples of the composition into about 50 milliliters of distilled water, followed by addition of about 10 milliliters of a 10 weight/weight percent solution of potassium iodide and addition of about 10 milliliters of a 10 volume percent solution of sulfuric acid, the resulting mixture being well stirred. The resulting yellow to brown solution, whose color is the result of oxidation of free iodine ion (I^−) to molecular iodine (I2), was then volumetrically titrated to an essentially colorless endpoint by addition of standardized 0.1 Molar sodium thiosulfate (Na2S2O3) titrant. Calculation then expresses the result as percent of available molecular chlorine (Cl2), that is to say assigning two equivalents per mole of titrated hypohalite oxidant. Stability results are then expressed by repeated assays over time using identically prepared samples resulting from the same composition, normalized to 100 percent representative of the starting available chlorine measured initially.

OB(O)O [Boric acid]
gel ([1]; buffer Wt. % 0.21, pH 8.5): Yes
gel ([1]; buffer Wt. % 0.41, pH 8.4): Yes

O=C(O)CCC(=O)O [Succinic acid]
gel ([1]; buffer Wt. % 0.01, pH 9.2): Yes
gel ([1]; buffer Wt. % 0.04, pH 8.2): Viscous liquid

CC(=O)O [acetic acid]
gel formation [1]: Gels

Cl [hydrochloric acid]
gel formation [1]: Gels

CCCCCCCCCCCCOS(=O)(=O)[O-].[Na+] [sodium lauryl sulfate]
stability of dilute hypochlorite with surfactant, compared with Vangel ES ([2]; comparison with thickeners of Table 4): less stable than Vangel ES®

CCCCCCCCS(=O)(=O)[O-].[Na+] [sodium octyl sulfonate]
stability of dilute hypochlorite with surfactant, compared with Vangel ES [2]: less stable than Vangel ES®

CCCCCCCCCCCCCCCC[N+](C)(C)C.[Cl-] [trimethylC16 ammonium chloride]
stability of dilute hypochlorite with surfactant, compared with Vangel ES [2]: less stable than Vangel ES®

sodium alkylbenzenesulfonate
stability of dilute hypochlorite with surfactant, compared with Vangel ES [2]: less stable than Vangel ES®
